Measured values from patent US4525473A, “Cephalosporins” (Bristol-Myers Company, priority 1983, dated 1985).
Values after ≈ are worked out from the molar mass of the structure shown. Read-outs that look alike come from different tables or passages of the source.

Assays:
Assay type in all cases: cell-based
[1] = system: Penicillin(PC)sensitive S. aureus; experiment: MIC by two-fold serial agar dilution in Mueller-Hinton agar, Gp-Ia; conditions: Gp-Ia, 5 strains, PC-sensitive S. aureus; for MIC: Staphylococcus aureus, read-out: Geometric Mean of MIC
Description: (§1) In the primary evaluation of the compounds of this invention, the Minimum Inhibitory Concentrations (MIC's) of the compounds were determined by the two-fold serial agar dilution method in Mueller-Hinton agar against 32 strains of test organisms in six groups.
Gp-Ia: Penicillin(PC)sensitive S. aureus

PCresistant S. aureus = experiment: MIC by two-fold serial agar dilution in Mueller-Hinton agar, Gp-Ib; conditions: Gp-Ib, 5 strains, PC-resistant S. aureus; for MIC: Staphylococcus aureus, read-out: Geometric Mean of MIC
Description: as §1
GpIb: PCresistant S. aureus

[2] = system: Cephalothin(CET)sensitive E. coli (2 strains), K. pneumoniae (1) and P. mirabilis (2); experiment: MIC by two-fold serial agar dilution in Mueller-Hinton agar, Gn-Ia; conditions: for MIC: read-out: Geometric Mean of MIC
Description: as §1
GnIa: Cephalothin(CET)sensitive E. coli (2 strains), K. pneumoniae (1) an […]

[3] = system: CETresistant E. coli (3) and K. pneumoniae (2); experiment: MIC by two-fold serial agar dilution in Mueller-Hinton agar, Gn-Ib; conditions: for Geometric Mean of MIC: Gn-Ib, 5 strains, CET-resistant; for MIC: Escherichia coli, read-out: Geometric Mean of MIC
Description: as §1
GnIb: CETresistant E. coli (3) and K. pneumoniae (2)

[4] = system: M. morganii (1), E. cloacae (2) and S. marcescens (2); experiment: MIC by two-fold serial agar dilution in Mueller-Hinton agar, Gn-II; conditions: Gn-II, 5 strains; for MIC: read-out: Geometric Mean of MIC
Description: as §1
GnII: M. morganii (1), E. cloacae (2) and S. marcescens (2)

P. aeruginosa = experiment: MIC by two-fold serial agar dilution in Mueller-Hinton agar, Gn-III; conditions: for MIC: Pseudomonas aeruginosa, read-out: Geometric Mean of MIC
Description: as §1

[5] = Gn-Ia, 5 strains, CET-sensitive
[6] = Gn-III, 7 strains, P. aeruginosa

Row | Molecule | Geometric Mean of MIC [1] [µg/mL] | Geometric Mean of MIC (PCresistant S. aureus) [µg/mL] | Geometric Mean of MIC [2, 5] [µg/mL] | Geometric Mean of MIC [3] [µg/mL] | Geometric Mean of MIC [4] [µg/mL] | Geometric Mean of MIC (P. aeruginosa; [6]) [µg/mL] | MIC [1] [µg/mL] | MIC (PCresistant S. aureus) [µg/mL] | MIC [2, 5] [µg/mL] | MIC [3] [µg/mL] | MIC [4] [µg/mL] | MIC (P. aeruginosa; [6]) [µg/mL] | MIC (P. aeruginosa) [µg/mL] | MIC [2] [µg/mL]
1 | 7-[(Z)-2-(2-Aminothiazol-4-yl)-2-methoxyiminoacetamido]-3-[(6-methyl-5,6,7,8-tetrahydro-6-[1,6]naphthylidinio)methyl]-3-cephem-4-carboxylate [Example 23] | 1.4 | 2.9 | 0.070 | 0.28 | 0.96 | 6.3 |  |  |  |  |  |  |  | 
2 | C#CCO/N=C(\C(=O)NC1C(=O)N2C(C(=O)[O-])=C(C[N+]3(C)CCCC3)CSC12)c1csc(N)n1 (stereo not drawn) [Example 18, 7-[(Z)-2-(2-Aminothiazol-4-yl)-2-propargyloxyiminoacetamido]-3-(1-methyl-1-pyrrolidiniomethyl)-3-cephem-4-carboxylate] |  |  |  |  |  |  | 0.77 (≈ 1.53 µM) | 2.2 (≈ 4.36 µM) | 0.061 (≈ 0.121 µM) | 0.32 (≈ 0.634 µM) | 0.36 (≈ 0.713 µM) | 4 (≈ 7.93 µM) |  | 
3 | CO/N=C(\C(=O)NC1C(=O)N2C(C(=O)[O-])=C(C[N+]3(C)CC=CC3)CS[C@H]12)c1csc(N)n1 (stereo partly drawn) [Example 11, 7-[(Z)-2-(2-Aminothiazol-4-yl)-2-methoxyiminoacetamido]-3-(1-methyl-3-pyrrolinio)methyl-3-cephem-4-carboxylate] |  |  |  |  |  |  | 0.78 (≈ 1.63 µM) | 2.1 (≈ 4.39 µM) | 0.019 (≈ 0.0397 µM) | 0.17 (≈ 0.355 µM) | 0.15 (≈ 0.313 µM) |  | 2.5 (≈ 5.22 µM) | 
4 | CO/N=C(\C(=O)NC1C(=O)N2C(C(=O)[O-])=C(C[N+]3(C)CCSC3)CSC12)c1csc(N)n1 (single isomer, unassigned) [13 Isomer B] | 0.72 | 1.6 |  | 0.13 | 0.13 |  |  |  |  |  |  |  | 2.5 (≈ 5.01 µM) | 0.029 (≈ 0.0582 µM)
5 | CO/N=C(\C(=O)NC1C(=O)N2C(C(=O)[O-])=C(C[N+]3(C)CCOC3)CSC12)c1csc(N)n1 (single isomer, unassigned) [12 Isomer B] | 1.3 | 4.4 |  | 0.21 | 0.18 | 4.0 |  |  |  |  |  |  |  | 0.04 (≈ 0.0829 µM)
